Test results from the NIST ThermoML archive (doi:10.1016/j.jct.2007.07.002).
Numbers after ± are expanded uncertainties.

Conditions: Gas, double Helmholtz acoustic resonator

F[Si](F)(F)F [silicon tetrafluoride]
Conditions | kinematic viscosity [m2/s] | speed of sound [m/s]
274.58 K, 744.26 kPa | – | 151.15 ± 0.031
274.58 K, 845.26 kPa | 3.88e-07 ± 1.2e-08 | 150.26 ± 0.031
274.58 K, 947.16 kPa | 3.48e-07 ± 4.8e-09 | 149.34 ± 0.031
274.58 K, 1048.3 kPa | 3.11e-07 ± 6.2e-09 | 148.41 ± 0.031
274.58 K, 1150.3 kPa | 2.86e-07 ± 3.4e-09 | 147.47 ± 0.031
274.58 K, 1252.2 kPa | 2.59e-07 ± 6.8e-09 | 146.53 ± 0.03
274.58 K, 1353.8 kPa | 2.42e-07 ± 1.5e-08 | 145.57 ± 0.035
274.58 K, 1454.6 kPa | 2.28e-07 ± 7.4e-09 | 144.62 ± 0.03
274.58 K, 1556 kPa | 2.09e-07 ± 6e-09 | 143.64 ± 0.03
274.58 K, 1657.9 kPa | 2.01e-07 ± 9.6e-09 | 142.67 ± 0.03
274.58 K, 1764.4 kPa | 1.82e-07 ± 7.6e-09 | 141.62 ± 0.03
274.58 K, 1878.1 kPa | 1.7e-07 ± 9.6e-09 | 140.5 ± 0.03
274.58 K, 1998.5 kPa | 1.64e-07 ± 7.6e-09 | 139.34 ± 0.029
274.58 K, 2141.9 kPa | 1.52e-07 ± 4.8e-09 | 137.92 ± 0.03
274.58 K, 2244.2 kPa | 1.42e-07 ± 2.2e-09 | 136.85 ± 0.03
274.58 K, 2354.1 kPa | 1.36e-07 ± 2e-09 | 135.74 ± 0.029
274.58 K, 2474 kPa | 1.31e-07 ± 2.6e-09 | 134.5 ± 0.03
274.58 K, 2776.6 kPa | 1.15e-07 ± 1.8e-09 | 131.33 ± 0.029
274.58 K, 2951.3 kPa | 1.08e-07 ± 1.3e-09 | 129.47 ± 0.032
300 K, 386.04 kPa | 1.14e-06 | 161.89 ± 1.1
300 K, 581.57 kPa | 7.42e-07 ± 5.2e-08 | 160.87 ± 0.2
300 K, 775.29 kPa | 5.2e-07 ± 6.6e-08 | 159.49 ± 0.22
300 K, 975.51 kPa | 4.04e-07 ± 4.6e-08 | 158.17 ± 0.056
300 K, 1173.9 kPa | 3.25e-07 ± 1.8e-08 | 156.88 ± 0.032
300 K, 1443.4 kPa | 2.69e-07 ± 2.2e-08 | 155.17 ± 0.032
300 K, 1648.7 kPa | 2.37e-07 ± 1.1e-08 | 153.86 ± 0.032
300 K, 1872.1 kPa | 2.11e-07 ± 1.2e-08 | 152.44 ± 0.032
300 K, 2157.9 kPa | 1.71e-07 ± 4.6e-08 | 150.6 ± 0.094
300 K, 2526.1 kPa | 1.53e-07 ± 3.6e-09 | 148.3 ± 0.032
324.96 K, 582.54 kPa | 8.84e-07 ± 1.7e-07 | 168.12 ± 0.44
324.96 K, 731.36 kPa | 6e-07 | 167.21 ± 0.16
324.96 K, 1070.8 kPa | 4.22e-07 ± 3.2e-08 | 165.71 ± 0.034
324.96 K, 1257.4 kPa | 3.6e-07 ± 5e-08 | 164.87 ± 0.046
324.96 K, 1487.6 kPa | 3.1e-07 ± 4e-09 | 163.84 ± 0.034
324.96 K, 1769 kPa | 2.59e-07 ± 3.1e-09 | 162.6 ± 0.033
324.96 K, 1936.2 kPa | 2.42e-07 ± 7.2e-09 | 161.88 ± 0.033
324.96 K, 2114.4 kPa | 2.11e-07 ± 9e-09 | 161.1 ± 0.033
324.96 K, 2322.2 kPa | 1.99e-07 ± 8.2e-09 | 160.23 ± 0.033
324.96 K, 2541 kPa | 1.84e-07 ± 5.6e-09 | 159.34 ± 0.033
